In ChEMBL document CHEMBL3352178, “Antidepressant- and anxiolytic-like activity of 7-phenylpiperazinylalkyl-1,3-dimethyl-purine-2,6-dione derivatives with diversified 5-HT₁A receptor functional profile” (Bioorg Med Chem, 2015) one finds Ki, Activity and deltaT data, which are given here for 15 molecules.

Structures are written as SMILES. Activity calls are given as the source filed them. The calls are words filed in the database; no cut-off is given here.

In series [1] the target is 5-hydroxytryptamine receptor 2A (Rattus norvegicus, UniProt P14842). The series is described as follows: Displacement of [3H]-ketanserin from 5-HT2AR in rat cortex. A general note: Displacement assays read how much labelled ligand stays bound in the presence of the test substance.
The target in series [2] is T1, 5-hydroxytryptamine receptor 1A (Rattus norvegicus, UniProt P19327).
T1 sequence (P19327 whole entry): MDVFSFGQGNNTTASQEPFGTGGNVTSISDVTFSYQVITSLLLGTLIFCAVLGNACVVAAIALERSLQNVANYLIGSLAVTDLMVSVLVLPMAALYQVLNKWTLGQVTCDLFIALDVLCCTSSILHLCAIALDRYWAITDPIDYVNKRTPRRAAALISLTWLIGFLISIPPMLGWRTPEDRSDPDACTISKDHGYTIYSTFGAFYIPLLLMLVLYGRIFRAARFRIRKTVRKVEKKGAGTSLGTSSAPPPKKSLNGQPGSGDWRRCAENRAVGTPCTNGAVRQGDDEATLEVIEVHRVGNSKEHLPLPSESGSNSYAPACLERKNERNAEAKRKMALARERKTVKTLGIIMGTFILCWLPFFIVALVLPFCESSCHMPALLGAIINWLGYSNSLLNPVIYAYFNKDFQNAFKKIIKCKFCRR
The series is described as follows: Displacement of [3H]-8-OH-DPAT from 5-HT1AR in rat hippocampus. Type of series: tissue-based.

A further series addresses D(2) dopamine receptor (Rattus norvegicus, UniProt P61169). The series is described as follows: Displacement of [3H]-spiperone from dopamine D2 receptor in rat striatum.
In series [3] the target is 5-hydroxytryptamine receptor 6 (Homo sapiens, UniProt P50406). As to the kind of experiment: Displacement of [3H]LSD from human cloned 5-HT6R expressed in HEK293 cells. Type of series: cell-based.
Series [4] concerns the target 5-hydroxytryptamine receptor 7 (Homo sapiens, UniProt P34969). As to the kind of experiment: Displacement of [3H]]-5-CT from human cloned 5-HT7R expressed in HEK293 cells. Type of series: cell-based.
For series [5], the system named is Mus musculus. As to the kind of experiment: Antidepressant-like activity in mouse assessed as reduction in immobility time at 10 to 20 mg/kg, ip dosed 60 mins before test by forced swim test. The format is functional, organism-based.
For series [6], the system named is Mus musculus. The series is described as follows: Effect on spontaneous locomotor activity in ip dosed mouse during 2 to 6 mins. Type of series: ADME, organism-based. To be noted: in vivo.
The test system of series [7] is Mus musculus. As to the kind of experiment: Anxiolytic-like activity in mouse assessed as increase in number of punished crossings at 1.25 to 5 mg/kg, ip dosed 60 mins before test by four plate test. The format is functional, organism-based.
Series [8] concerns Mus musculus. As to the kind of experiment: Induction of hypothermia in mouse assessed as change in body temperature at 5 mg/kg, ip administered 30 mins before test and measured 60 mins post dose. The format is functional, organism-based. Details: dose 5 mg/kg.
Series [9] deals with Mus musculus. The series is described as follows: Effect on spontaneous locomotor activity in mouse at 2.5 mg/kg, ip. Type of series: ADME, organism-based. More on the design: dose 2.5 mg/kg, route intraperitoneal. To be noted: in vivo.
Series [10] relates to Rattus norvegicus. The series is described as follows: Induction of lower lip retraction in rat assessed as lower lip retraction scores at 5 mg/kg, ip dosed 15 mins before test. The format is functional. The conditions noted are these: route intraperitoneal.
Series [11] concerns Mus musculus. The series is described as follows: Induction of hypothermia in mouse assessed as change in body temperature at 10 mg/kg, ip administered 30 mins before test and measured 60 mins post dose. More on the design: dose 10 mg/kg. The format is functional, organism-based.
Series [12] deals with Mus musculus. The series is described as follows: Induction of hypothermia in mouse assessed as change in body temperature at 5 mg/kg, ip administered 30 mins before test and measured 30 mins post dose. Type of series: functional, organism-based. Details: dose 5 mg/kg.
Series [13] relates to Mus musculus. As to the kind of experiment: Induction of hypothermia in mouse assessed as change in body temperature at 5 mg/kg, ip administered 30 mins before test and measured 120 mins post dose. The format is functional, organism-based. Details: dose 5 mg/kg.
Series [14] deals with Mus musculus. As to the kind of experiment: Induction of hypothermia in mouse assessed as change in body temperature at 10 mg/kg, ip administered 30 mins before test and measured 90 mins post dose. Type of series: functional, organism-based. Details: dose 10 mg/kg.
The subject of series [15] is Rattus norvegicus. As to the kind of experiment: Induction of lower lip retraction in rat assessed as lower lip retraction scores at 10 mg/kg, ip dosed 15 mins before test. The format is functional. The conditions noted are these: route intraperitoneal.
Series [16] deals with Mus musculus. As to the kind of experiment: Induction of hypothermia in mouse assessed as change in body temperature at 10 mg/kg, ip administered 30 mins before test and measured 30 mins post dose in presence of 0.3 mg/kg, sc 5HT1A receptor antagonist WAY 100635. The format is functional, organism-based.
The test system of series [17] is Mus musculus. As to the kind of experiment: Induction of hypothermia in mouse assessed as change in body temperature at 5 mg/kg, ip administered 30 mins before test and measured 90 mins post dose. The format is functional, organism-based. More on the design: dose 5 mg/kg.
The subject of series [18] is Mus musculus. The series is described as follows: Anxiolytic-like activity in mouse assessed as increase in number of punished crossings at 2.5 mg/kg, ip dosed 60 mins before test in presence of 0.3 mg/kg, sc 5HT1A receptor antagonist WAY 100635 by four plate test. The format is functional, organism-based.
Series [19] has as its system Mus musculus. The series is described as follows: Anxiolytic-like activity in mouse assessed as increase in number of punished crossings at 2.5 mg/kg, ip dosed 60 mins before test by four plate test. The format is functional. To be noted: route intraperitoneal.
In series [20] the test system is Rattus norvegicus. The series is described as follows: Induction of lower lip retraction in rat assessed as lower lip retraction scores at 10 mg/kg, ip dosed 45 mins after 0.3 mg/kg, sc 5HT1A receptor antagonist WAY 100635. The format is functional.
The subject of series [21] is Mus musculus. The series is described as follows: Antidepressant-like activity in mouse assessed as reduction in immobility time at 1.25 to 10 mg/kg, ip dosed 60 mins before test by forced swim test. Type of series: functional, organism-based.
For series [22], the system named is Rattus norvegicus. As to the kind of experiment: Inhibition of 8-OH-DPAT-induced lower lip retraction in rat assessed as lower lip retraction scores at 5 mg/kg, ip dosed 45 mins before 8-OH-DPAT. Type of series: functional. To be noted: route intraperitoneal.
The subject of series [23] is Mus musculus. The series is described as follows: Induction of hypothermia in mouse assessed as change in body temperature at 10 mg/kg, ip administered 30 mins before test and measured 30 mins post dose. Type of series: functional, organism-based. Details: dose 10 mg/kg.
In series [24] the test system is Mus musculus. As to the kind of experiment: Induction of hypothermia in mouse assessed as change in body temperature at 10 mg/kg, ip administered 30 mins before test and measured 120 mins post dose. Type of series: functional, organism-based. Details: dose 10 mg/kg.
The test system of series [25] is Mus musculus. The series is described as follows: Induction of hypothermia in mouse assessed as change in body temperature at 10 mg/kg, ip administered 30 mins before test and measured 60 mins post dose in presence of 0.3 mg/kg, sc 5HT1A receptor antagonist WAY 100635. Type of series: functional, organism-based.

Chain of 5-hydroxytryptamine receptor 7 (P34969 whole entry): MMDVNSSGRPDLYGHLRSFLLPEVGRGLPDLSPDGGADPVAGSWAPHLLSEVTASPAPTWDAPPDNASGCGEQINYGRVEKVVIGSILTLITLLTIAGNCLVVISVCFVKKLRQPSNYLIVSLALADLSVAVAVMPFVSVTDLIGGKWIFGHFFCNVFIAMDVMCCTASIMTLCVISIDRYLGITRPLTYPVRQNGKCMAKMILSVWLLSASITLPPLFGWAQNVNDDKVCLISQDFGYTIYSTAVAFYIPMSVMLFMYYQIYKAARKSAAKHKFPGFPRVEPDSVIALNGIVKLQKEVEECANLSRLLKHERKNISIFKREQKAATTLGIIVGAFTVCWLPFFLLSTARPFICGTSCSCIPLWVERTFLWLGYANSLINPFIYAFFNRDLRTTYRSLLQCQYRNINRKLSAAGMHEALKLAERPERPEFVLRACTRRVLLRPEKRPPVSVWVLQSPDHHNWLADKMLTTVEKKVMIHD
Chain of 5-hydroxytryptamine receptor 6 (P50406 whole entry): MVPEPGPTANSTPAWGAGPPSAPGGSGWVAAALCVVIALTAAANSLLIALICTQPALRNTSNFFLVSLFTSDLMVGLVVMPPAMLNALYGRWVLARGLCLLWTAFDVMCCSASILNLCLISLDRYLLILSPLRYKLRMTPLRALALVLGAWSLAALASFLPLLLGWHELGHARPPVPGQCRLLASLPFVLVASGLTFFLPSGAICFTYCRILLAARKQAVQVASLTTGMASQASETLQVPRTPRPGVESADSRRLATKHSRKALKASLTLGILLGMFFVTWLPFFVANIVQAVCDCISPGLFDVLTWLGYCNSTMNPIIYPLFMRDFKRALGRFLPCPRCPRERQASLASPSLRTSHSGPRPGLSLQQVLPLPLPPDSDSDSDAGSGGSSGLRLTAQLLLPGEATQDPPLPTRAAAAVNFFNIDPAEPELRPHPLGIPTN
Chain of 5-hydroxytryptamine receptor 2A (P14842 whole entry): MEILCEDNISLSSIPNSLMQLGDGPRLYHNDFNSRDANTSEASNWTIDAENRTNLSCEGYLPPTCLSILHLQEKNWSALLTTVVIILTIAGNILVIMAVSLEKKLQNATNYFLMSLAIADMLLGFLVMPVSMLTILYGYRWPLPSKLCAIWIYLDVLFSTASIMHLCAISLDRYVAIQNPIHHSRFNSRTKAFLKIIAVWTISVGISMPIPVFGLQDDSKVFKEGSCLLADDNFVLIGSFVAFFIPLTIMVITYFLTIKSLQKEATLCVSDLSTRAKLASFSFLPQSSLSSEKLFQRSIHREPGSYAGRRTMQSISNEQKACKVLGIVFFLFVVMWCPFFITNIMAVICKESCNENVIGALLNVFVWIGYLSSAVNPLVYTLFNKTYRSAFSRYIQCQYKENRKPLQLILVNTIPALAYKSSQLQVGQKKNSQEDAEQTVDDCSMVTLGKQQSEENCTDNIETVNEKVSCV
Chain of D(2) dopamine receptor (P61169 whole entry): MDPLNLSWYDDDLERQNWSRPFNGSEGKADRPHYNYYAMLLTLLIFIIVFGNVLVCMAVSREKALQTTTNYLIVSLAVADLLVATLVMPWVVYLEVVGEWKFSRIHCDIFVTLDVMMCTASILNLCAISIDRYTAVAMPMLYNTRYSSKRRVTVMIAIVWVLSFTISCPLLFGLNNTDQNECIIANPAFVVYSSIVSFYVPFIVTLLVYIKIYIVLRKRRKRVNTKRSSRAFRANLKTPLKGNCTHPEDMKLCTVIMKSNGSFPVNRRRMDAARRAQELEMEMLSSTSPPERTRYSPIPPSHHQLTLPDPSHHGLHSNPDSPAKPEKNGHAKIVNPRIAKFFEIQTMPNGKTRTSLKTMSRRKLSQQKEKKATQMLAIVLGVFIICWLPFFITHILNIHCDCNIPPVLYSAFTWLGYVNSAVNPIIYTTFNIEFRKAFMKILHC

The term Ki denotes the dissociation constant of the complex between target and ligand, obtained from inhibition or displacement. A high value points to weaker binding. On to `Cn1c(=O)c2c(ncn2CCCN2CCN(c3cccc(Cl)c3)CC2)n(C)c1=O`, for which the Ki came to 53 nM in series [1]; 182 nM in series [2]; 3190 nM on D(2) dopamine receptor; 20300 nM in [3]; 2800 nM in [4].
With `COc1ccccc1N1CCN(CCCn2cnc3c2c(=O)n(C)c(=O)n3C)CC1`, the inhibitory constant (Ki) in series [1] was 927 nM; in [2], 119 nM; on D(2) dopamine receptor, 944 nM; in [3], 12100 nM; in series [4], 2210 nM.
For the molecule `CN(C)CCCN1c2ccccc2CCc2ccccc21` [IMIPRAMINE], the result in the series on Mus musculus [5] was Active. Also, in the series with Mus musculus [6], the Activity result is listed as “Non-toxic”.
For `Cn1c(=O)c2c(ncn2CCCCN2CCN(c3ccc(Cl)c(Cl)c3)CC2)n(C)c1=O`, the Ki in series [1] came out at 460 nM; in series [2], 105 nM; on D(2) dopamine receptor it was 73 nM; in [3], 1900 nM; in series [4], 179 nM.
As to `CN1C(=O)CN=C(c2ccccc2)c2cc(Cl)ccc21`, in the series with Mus musculus [7], the result was Active.
In [4], `CCOc1nc2c(c(=O)n(C)c(=O)n2C)n1CCCCN1CCN(c2ccccc2OC)CC1` registered a Ki of 54 nM.
For the molecule `Cn1c(=O)c2c(nc(N3CCOCC3)n2CCCCN2CCN(c3cccc(Cl)c3)CC2)n(C)c1=O`, the Ki in series [1] is 21 nM; in series [2], 22 nM; in series [3], 207 nM; in [4], 112 nM.
`Cn1c(=O)c2c(ncn2CCCCCN2CCc3ccccc3C2)n(C)c1=O`: the inhibition constant (Ki) in series [1] is 16400 nM; in series [2], 171 nM; at D(2) dopamine receptor, 1220 nM; in series [3], 9140 nM; in series [4], 1010 nM.
Turning to `Cl.Cn1c(=O)c2c(ncn2CCCCCN2CCN(c3ccccc3)CC2)n(C)c1=O`, the deltaT with Mus musculus [8] is 1.1 °C; with Mus musculus [11], -1.5 °C; with Mus musculus [12] it was -1.4 °C; in the series with Mus musculus [13] it was 0.4 °C; in the series on Mus musculus [14], -1.4 °C; in the series on Mus musculus [16], -0.2 °C. Also, the deltaT in the series on Mus musculus [17] is -0.1 °C; in the series with Mus musculus [23] it was -0.9 °C; in the series with Mus musculus [24] it was -1.3 °C; in the series with Mus musculus [25], -0.9 °C. The Activity entry in the series with Mus musculus [9] was “Non-toxic”; with Rattus norvegicus [10] it was 0.4; in the series on Rattus norvegicus [15], 2; in the series with Mus musculus [19] it was 50%; in the series on Rattus norvegicus [20], 0.2; with Rattus norvegicus [22], 1.7. Further, the Ki worked out at 308 nM in series [1]; 11 nM in series [2]; 356 nM on D(2) dopamine receptor; 10300 nM in series [3]; 346 nM in [4]. Further, the outcome with Mus musculus [18] and in the series on Mus musculus [21] was inactive.
For `Cn1c(=O)c2c(ncn2CCCN2CCN(c3ccccc3)CC2)n(C)c1=O`, the Ki in series [1] amounted to 92 nM; in [2] it was 571 nM; at D(2) dopamine receptor, 1090 nM; in series [3], 20100 nM; in [4], 1430 nM.
For the molecule `Cn1c(=O)c2c(ncn2CCCN2CCc3ccccc3C2)n(C)c1=O`, the Ki in series [1] amounted to 10500 nM; in series [2] it was 433 nM; on D(2) dopamine receptor, 2710 nM; in [3], 12300 nM; in series [4] it was 3620 nM.
As for `Cn1c(=O)c2c(ncn2CCCCN2CCN(c3cccc(Cl)c3Cl)CC2)n(C)c1=O`, the Ki in series [1] turned out to be 162 nM; in series [2], 55 nM; on D(2) dopamine receptor, 15 nM; in series [3], 68 nM; in [4], 73 nM.
Regarding `COc1ccccc1N1CCN(CCCCn2cnc3c2c(=O)n(C)c(=O)n3C)CC1`, the inhibition constant (Ki) is 1050 nM in series [1]; 1.2 nM in series [2]; 65 nM at D(2) dopamine receptor; 1970 nM in series [3]; 434 nM in [4].
Taken in the same sequence, the figures for `Cn1c(=O)c2c(ncn2CCCCN2CCN(c3ccccc3)CC2)n(C)c1=O` were 507 nM, 23 nM, 1010 nM, 14200 nM and 1150 nM.
Taken in the same sequence, the figures for `Cn1c(=O)c2c(ncn2CCCCN2CCc3ccccc3C2)n(C)c1=O` were 22000 nM, 239 nM, 7820 nM, 11700 nM and 629 nM.
